{"source": "patent US20060275826A1", "about": "“Artificial antibody comprising complementary peptide” (priority 2003, published 2006)", "key": {"[1]": {"target": "T1, HIV transcriptase (HIV-RT) (Human immunodeficiency virus type 1 group M subtype B, UniProt P04585)", "T1 construct": "reverse transcriptase (abbreviated as RT hereinafter)", "experiment": "Sandwich ELISA detecting HIV-RT with complementary peptides as artificial antibody peptides", "type": "binding", "details": "wells coated with ESLA 2340, detection with biotin-labeled TLMA 2993 and peroxidase-labeled avidin", "procedure": "Wells of a 96 well plate were coated with ESLA 2340 in advance. After adding a diluted solution of HIV-RT in each well and allowing the plate to stand overnight at 4° C., the plate was washed and biotin-labeled TLMA 2993 was added to each well. The plate was allowed to stand for 1 hour at room temperature. After washing the plate again, peroxidase-labeled avidin was added to allow it to react at room temperature for 1 hour. After washing the plate to remove unreacted avidin, a color development reaction was performed by a conventional method at room temperature by adding a color developing reagent of peroxidase."}, "[2]": {"target": "T2, reverse transcriptase (RT) of human immunodeficiency virus-1 (HIV-1) (Human immunodeficiency virus type 1 group M subtype B, UniProt P04585)", "T2 construct": "reverse transcriptase (abbreviated as RT hereinafter)", "experiment": "HIV-RT activity assay (primer tRNALys3 elongation on viral genome RNA, autoradiography)", "type": "biochemical", "details": "for IC50: 50% suppression concentrations against RT, 50 ng HIV-RT, 37° C., 15 minutes; for suppressing activity against RT activity: result in words", "text": "Complementary peptides against peptides at each site of reverse transcriptase (abbreviated as RT hereinafter) of a pathogenic virus of AIDS, human immunodeficiency virus-1 (HIV-1), were automatically designed using an analysis program (MIMETIC), and the peptides shown in Table 1 were designed. The designed peptides were synthesized by a conventional solid phase method by allowing 9-fluorenylmethoxycarbonyl (Fmoc) amino acids to sequentially bind using a peptide synthesizer (trade name: AMS 422 Multiple Peptide Synthesizer, manufactured by ABiMED Co.). The synthesized peptide was released from the solid support by a conventional method, and protective groups were removed. The peptide obtained was recovered by ether precipitation, and was purified with reversed phase HPLC after removing ether by drying. A culture supernatant of PLB cells (established human lymphocyte strain) infected with HIV-1 was placed on a top layer of layered 65% and 15% sucrose solutions in a ultracentrifuge tube, and HIV-1 particles were retrieved by ultracentrifugation for 1 hour at 26,500 rpm. Virus RNA was extracted by a guanidine isothiocyanate method (Chomezynski, P. and Sacchi, N., RNA Isolation from Cultured cells, Analytical Biochemistry, 162: 156-159, 1987), and the extract was used by dissolving in 5 mM Tris buffer (pH 7.5). The amount of the whole length virus genome RNA contained in the total RNA sample was quantified according to a conventional ribonuclease protection method (Kaye, J. F. et al., Cis-acting Sequences Involved in Human Immunodeficiency Virus Type 1 RNA Packaging, J. Virol, 69: 6588-6592, 1995; and Huang, Y. et al., The Role of Nucleocapsid and U5 stem/A rich Loop Sequences in tRNA (3Lys) Genomic Placement and Initiation of Reverse Transcription in Human Immunodeficiency Virus Type 1, J. Virol., 72: 3907-3915, 1997). The virus genome binds to tRNA^Lys3 in the cell, and can be used for measuring RT activity. The RNA genome of about 5×10^7 molecules was allowed to react with 50 ng of HIV-RT, 10 units of […] and dNTP's (deoxynucleic acid) at 37° C. for 15 minutes in 20 μl of RTbuffer (50 mMTris-HCl, pH 7.5, 60 mM KCl, 3 mM MgCl2 and 10 mM DTT). The sequence at the tip of the molecule comprises six bases of CTGCTA. One base was added to tRNA^Lys3 using ^32P-dCTP with a radioactivity of 5 μci, and 6 bases were further added by allowing 0.2 mM of dCTP, 0.2 mM of dTTP, 5 μCi of ^32p-dGTP and 0.05 mM of ddATP to react. The elongated primer was retrieved by ethanol precipitation, and was analyzed by auto-radiography through electrophoresis on 6% polyacrylamide gel containing 7 M urea."}, "[3]": {"target": "T3, ProCPR (Homo sapiens, UniProt Q96IY4)", "T3 sequence (Q96IY4 23-423 limits assumed)": "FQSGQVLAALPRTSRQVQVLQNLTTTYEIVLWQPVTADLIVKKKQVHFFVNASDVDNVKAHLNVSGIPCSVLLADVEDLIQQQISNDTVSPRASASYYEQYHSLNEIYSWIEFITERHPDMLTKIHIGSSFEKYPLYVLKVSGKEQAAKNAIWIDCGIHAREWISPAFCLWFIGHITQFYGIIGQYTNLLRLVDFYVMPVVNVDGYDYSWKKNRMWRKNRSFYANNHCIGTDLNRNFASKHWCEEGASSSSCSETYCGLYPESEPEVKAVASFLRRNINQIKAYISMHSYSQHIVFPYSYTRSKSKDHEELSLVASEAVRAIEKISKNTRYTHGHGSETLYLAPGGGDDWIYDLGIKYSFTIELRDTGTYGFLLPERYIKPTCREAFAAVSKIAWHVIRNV", "experiment": "Surface plasmon resonance analyzer (Biacore) reactivity to ProCPR", "type": "binding"}, "[4]": {"target": "T4, ProCPR (Homo sapiens, UniProt Q96IY4)", "T4 construct": "diluted human plasma containing ProCPR; from tissue; host or cells: human plasma", "T4 sequence (Q96IY4 115-423)": "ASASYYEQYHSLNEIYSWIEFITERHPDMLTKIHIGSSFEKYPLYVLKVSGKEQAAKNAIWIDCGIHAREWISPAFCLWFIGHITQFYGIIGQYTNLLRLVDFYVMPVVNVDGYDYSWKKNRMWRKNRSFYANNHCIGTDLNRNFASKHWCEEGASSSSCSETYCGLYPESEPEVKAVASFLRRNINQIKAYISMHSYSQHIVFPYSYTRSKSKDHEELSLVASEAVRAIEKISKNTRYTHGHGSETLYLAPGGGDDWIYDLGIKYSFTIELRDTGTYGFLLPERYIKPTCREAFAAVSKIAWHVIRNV", "experiment": "Plate ELISA: VGG-coated plate, human plasma containing ProCPR, biotin-labeled 10G1 antibody", "type": "binding", "details": "plate coated with VGG, diluted human plasma", "procedure": "After coating the plate with VGG and washing the plate, diluted human plasma containing ProCPR was added to the plate and was allowed to react for 1 hour at room temperature. After removing excess plasma by washing the plate, 10G1 as a […] was added followed by allowing it to react for 1 hour at room temperature. Excess 10G1 antibody was removed by washing the plate, and remaining 10G1 antibody was allowed to react by adding peroxidase-labeled avidin. After removing unreacted avidin by washing, the reaction solution was made to develop a color by a conventional method depending on the strength of the enzyme reaction of peroxidase by adding a peroxidase color development reagent, and the intensity of the color was measured with a plate reader."}, "[5]": {"target": "T5, Pro-carboxypeptidase R (ProCPR) (Homo sapiens, UniProt Q96IY4)", "T5 sequence (Q96IY4 23-423 limits assumed)": "T3 sequence (Q96IY4 23-423 limits assumed)", "experiment": "Activation of ProCPR to CPR by thrombin-thrombomodulin (T/TM) complex, hippuryl-L-arginine substrate", "type": "biochemical", "details": "1 μM of peptide", "text": "Pro-carboxypeptidase R (abbreviated as ProCPR hereinafter) is converted into active carboxypeptidase R (abbreviated as CPR hereinafter) by trimming a sequence from an amino terminal to arginine 92 with a trypsin-like enzyme such as thrombin and plasmin. A complementary peptide corresponding to the amino acid sequence comprising 30, 24, 20, 15 or 11 amino acids from amino acid 87 counted from the amino terminal of the ProCPR was automatically designed using the analysis program MIMETIC of the invention, and the peptides shown in Table 2 were designed. An action on the activation reaction of ProCPR by a thrombin-thrombomodulin complex (abbreviated as T/TM complex hereinafter) was analyzed with respect to the peptides (the peptides in notes (1) and (2) in Table 2) comprising 20 and 15 amino acids of the complementary peptides described above. The designed peptides were synthesized by a conventional solid state method by which 9-fluorenylmethoxycarbonyl (Fmoc) amino acids are sequentially linked using a peptide synthesizer (trade name: AMS 422 Multiple Peptide Synthesizer, manufactured by ABiMED Co.) The synthesized peptide was released by a conventional method, and protecting groups were removed. The peptide obtained was retrieved by ether precipitation, and was purified by reversed phase HPLC after removing ether by drying. The purified peptides comprising 20 and 15 amino acids were allowed to react with ProCPR for 10 minutes at room temperature, followed by allowing the T/TM complex to react. After a reaction for 45 minutes at 37° C. by adding hippuril-L-arginine which is substrate of CPR, free hippuric acid was measured according to a reported method (Komura, H., et al., Effect of Anticoagulants in Colorimetric Assay for Basic Carboxypeptidase, Microbiol. Immunol., 46: 115-117, 2002). When 20-mer peptide and 15-mer peptide were added, activation of ProCPR to CPR with the T/TM complex was suppressed by adding 1 μM of respective peptides. […]"}}, "note": "No end group written: not given here."}
{"sequence": "ESLALYKSLQQSEMLLELEL [ESLA2340]", "values": [{"measurement": "color development depending on concentration of HIV-RT (sandwich ELISA)", "setting": "[1]", "value": "A color was developed depending on the concentration of HIV-RT"}, {"measurement": "IC50", "setting": "[2]", "value": 17, "unit": "µM"}, {"measurement": "suppressing activity against RT activity", "setting": "[2]", "value": "confirmed to suppress the activity of transcriptase"}]}
{"sequence": "PSTWPTFLKFQLK [PSTW1594, PSTWPTFLKFQLK]", "values": [{"measurement": "IC50", "setting": "[2]", "value": 15, "unit": "µM"}]}
{"sequence": "TLMALELKGKLLLAGLAPSAFLPLSFPEL [TLMA2993]", "values": [{"measurement": "color development depending on concentration of HIV-RT (sandwich ELISA)", "setting": "[1]", "value": "A color was developed depending on the concentration of HIV-RT"}, {"measurement": "IC50", "setting": "[2]", "value": 15, "unit": "µM"}, {"measurement": "suppressing activity against RT activity", "setting": "[2]", "value": "confirmed to suppress the activity of transcriptase"}]}
{"sequence": "VGGRRTRARRVLLLVLTETH [complementary (mimetic) peptide to ProCPR positions 87-106]", "values": [{"measurement": "reactivity to ProCPR by surface plasmon resonance", "setting": "[3]", "value": "confirmed to be reactive to ProCPR"}, {"measurement": "color development depending on concentration of plasma containing ProCPR (ELISA)", "setting": "[4]", "value": "color was developed depending on the concentration of the plasma"}, {"measurement": "suppression of activation of ProCPR to CPR with the T/TM complex", "setting": "[5]", "value": "confirmed to suppress activation of ProCPR"}, {"measurement": "suppression of activation of ProCPR to CPR with the T/TM complex", "setting": "[5]; listed as 20-mer peptide", "value": "suppressed"}]}
{"sequence": "VSRGRRRDRRILMII [15-mer peptide, complementary (mimetic) peptide to ProCPR positions 87-101]", "values": [{"measurement": "suppression of activation of ProCPR to CPR with the T/TM complex", "setting": "[5]", "value": "suppressed"}]}
